Measurements reported in article PMC3598812, “Evaluation of Anti-Hyperalgesic and Analgesic Effects of Two Benzodiazepines in Human Experimental Pain: A Randomized Placebo-Controlled Study” (PLoS ONE, 2013).
“Also recorded” adds a separate entry of the source.

Assays:
Assay type in all cases: in vivo, human
healthy male volunteers [1] = test: Cutaneous single electrical stimulation pain threshold; details: mean (SD)
Procedure: (§1) Electrical stimulation was performed through electrodes placed distal to the lateral malleolus. A 25 ms, train-of-five, 1 ms, square-wave impulse (perceived as one stimulus), was delivered by a computer-controlled constant current stimulator (Digitimer DS7A, Neurospec, Letchworth Garden City, UK). The current intensity was increased from 1 mA in steps of 0.5 mA until a pain sensation was evoked.
(§2) Three assessments were made and the mean of these 3 measurements was used for the data analysis.

healthy male volunteers [2] = test: Cutaneous repeated (5 stimuli) electrical stimulation, temporal summation threshold; details: mean (SD)
Excerpt: The stimulus burst used for single stimulus was repeated 5 times at 2 Hz, at constant intensity. The current intensity of the 5 stimuli was increased from 1 mA in steps of 0.5 mA until the subjects felt pain during the last 2–3 of the 5 stimuli (indicating temporal summation).
as §2

healthy male volunteers [3] = test: Intramuscular single electrical stimulation pain threshold (tibialis anterior); details: for Pain threshold after single intramuscular electrical stimulation: mean (SD)
Procedure: as §1
(§3) A needle was placed in the tibialis anterior muscle, 14 cm distal from the caudal end of the patella and 20 mm in depth. The same single and repeated stimulation patterns and the same procedure described for cutaneous stimulation were used.

healthy male volunteers [4] = test: Pain rating (VAS) after graded von Frey hair stimulation in the capsaicin hyperalgesic area; details: VAS 0-10, single oral dose (clobazam 20 mg, clonazepam 1 mg, tolterodine 1 mg), mean (SD)
Procedure: Additionally, mechanical pain sensitivity was assessed using a set of seven weighted pinprick stimuli to obtain a stimulus-response function. The test was applied 1 cm inside the outer border of the pinprick hyperalgesic area, using a set of 7 graded von Frey hair mechanical stimulators with fixed stimulus intensities (custom-made at Aalborg University, Denmark). The flat contact area of the stimulators has a 0.2 mm diameter, and the 7 stimulators exert forces of 8, 16, 32, 64, 128, 256 and 512 mN. The order of stimulation was defined randomly by computer. The stimulators were applied at a rate of 2 s on/2 s off. Subjects were asked to give a pain rating for each stimulus on a 10 cm VAS. Two assessments for each stimulation were made and the mean of these 2 measurements was used for the data analysis.

healthy male volunteers [5] = test: Cuff algometry (tourniquet cuff on the leg, VAS-time AUC); set-up: AUC of VAS during cuff algometry: unit not given beside the values; details: for AUC of VAS during cuff algometry: mean (SD)
Excerpt: A tourniquet cuff was applied to the middle of the leg, at the level of the heads of the gastrocnemius and soleus muscle. The cuff was applied at the side contralateral to the side of electrical stimulation in order not to interfere with the positioning of the intramuscular electrodes. During stimulation, the volunteer rated the pain intensity on an electronic VAS scale. The cuff was inflated with compressed air until VAS 6 was reached. The maximum allowed inflating pressure was 200 kPa. The pressure was maintained for 10 min or until the subjects rated the pain as intolerable. The area under the curve VAS-time was computed. For those subjects who felt intolerable pain before 10 min, the time when the cuff was deflated was recorded and VAS 10 was extrapolated until 10 min. Additionally, the maximal VAS during inflation was recorded.

healthy male volunteers [6] = test: Intramuscular repeated (20 stimuli) electrical stimulation, VAS; set-up: AUC of VAS during 20 intramuscular electrical stimuli: unit not given beside the values; details: for Maximal VAS during 20 intramuscular electrical stimuli: VAS 0-10; for Maximal VAS during 20 intramuscular electrical stimuli / AUC of VAS during 20 intramuscular electrical stimuli: mean (SD)
Procedure: The stimulus burst used for single stimulus was repeated for a train of 20 pulses at 2 Hz, at an intensity corresponding to the temporal summation threshold. During this 10 s stimulation, pain intensity was continuously rated by the subject with an electronic VAS, and the area under the curve (AUC) was computed. Additionally, the maximal VAS during stimulation was recorded.
as §3

[7] = baseline before medication, per drug session
[8] = single oral dose (clobazam 20 mg, clonazepam 1 mg, tolterodine 1 mg), 30 min after medication
[9] = single oral dose (clobazam 20 mg, clonazepam 1 mg, tolterodine 1 mg), 60 min after medication
[10] = single oral dose (clobazam 20 mg, clonazepam 1 mg, tolterodine 1 mg), 90 min after medication
[11] = single oral dose (clobazam 20 mg, clonazepam 1 mg, tolterodine 1 mg), 120 min after medication
[12] = single oral dose (clobazam 20 mg, clonazepam 1 mg, tolterodine 1 mg), after flumazenil 0.2 mg iv
[13] = subgroup analysis (n = 8), pairwise multiple comparisons

Q: `O=C1CN=C(c2ccccc2Cl)c2cc([N+](=O)[O-])ccc2N1` [Clonazepam] was tested. Which “Pain threshold after single cutaneous electrical stimulation” value (healthy male volunteers [1]; [7]) did it give?
A: 9.7 (3.3) mA

Q: And the “Pain threshold after single cutaneous electrical stimulation” value (healthy male volunteers [1]; [8])?
A: 9.8 (3.5) mA

Q: And the “Pain threshold after single cutaneous electrical stimulation” value (healthy male volunteers [1]; [9])?
A: 10.3 (3.4) mA

Q: What about the “Pain threshold after single cutaneous electrical stimulation” value (healthy male volunteers [1]; [10]) of the same compound?
A: 10.6 (3.6) mA

Q: And the “Pain threshold after single cutaneous electrical stimulation” value (healthy male volunteers [1]; [11])?
A: 11.0 (3.6) mA

Q: And the “Pain threshold after single cutaneous electrical stimulation” value (healthy male volunteers [1]; [12])?
A: 11.2 (3.9) mA

Q: What about the “Pain threshold after 5 cutaneous electrical stimuli” value (healthy male volunteers [2]; [7]) of the same compound?
A: 8.2 (3.1) mA

Q: What about the “Pain threshold after 5 cutaneous electrical stimuli” value (healthy male volunteers [2]; [8]) of the same compound?
A: 8.2 (3.0) mA

Q: And the “Pain threshold after 5 cutaneous electrical stimuli” value (healthy male volunteers [2]; [9])?
A: 8.5 (2.9) mA

Q: What about the “Pain threshold after 5 cutaneous electrical stimuli” value (healthy male volunteers [2]; [10]) of the same compound?
A: 8.8 (3.2) mA

Q: What about the “Pain threshold after 5 cutaneous electrical stimuli” value (healthy male volunteers [2]; [11]) of the same compound?
A: 9.1 (3.1) mA

Q: What about the “Pain threshold after 5 cutaneous electrical stimuli” value (healthy male volunteers [2]; [12]) of the same compound?
A: 9.2 (3.3) mA

Q: What about the “Pain threshold after single intramuscular electrical stimulation” value (healthy male volunteers [3]; [7]) of the same compound?
A: 1.8 (1.2) mA

Q: And the “Pain threshold after single intramuscular electrical stimulation” value (healthy male volunteers [3]; baseline before medication, per drug session, listed as clonazepam)?
A: 1.84 mA

Q: And the “Change in pain threshold after single intramuscular electrical stimulation from baseline to after flumazenil” value (healthy male volunteers [3]; main analysis, pairwise comparisons within each drug)?
A: Significant increase in pain thresholds only for clonazepam

Q: And the “Change in pain detection threshold from baseline to peak value, intramuscular single electrical stimulation” value (healthy male volunteers [3]; peak value analysis, pairwise comparisons within each drug)?
A: significantly increase; also recorded: Significant increase in pain thresholds only for clonazepam in the peak value analysis

Q: What about the “Pain detection threshold, intramuscular single electrical stimulation” value (healthy male volunteers [3]; peak value analysis, peak value before flumazenil, mean) of the same compound?
A: 11.0

Q: What about the “Pain threshold after single intramuscular electrical stimulation” value (healthy male volunteers [3]; [11]) of the same compound?
A: 3.0 (2.5) mA

Q: And the “Pain threshold after single intramuscular electrical stimulation” value (healthy male volunteers [3]; [12])?
A: 4.1 (3.7) mA

Q: What about the “Pain threshold after single intramuscular electrical stimulation” value (healthy male volunteers [3]; single oral dose (clobazam 20 mg, clonazepam 1 mg, tolterodine 1 mg), after flumazenil 0.2 mg iv, listed as clonazepam) of the same compound?
A: 4.05 mA

Q: And the “VAS after von Frey hair 8 mN” value (healthy male volunteers [4]; 30 min after medication)?
A: 1.4 (1.5)

Q: And the “VAS after von Frey hair 16 mN” value (healthy male volunteers [4]; 30 min after medication)?
A: 1.6 (1.2)

Q: And the “VAS after von Frey hair 32 mN” value (healthy male volunteers [4]; 30 min after medication)?
A: 1.9 (1.5)

Q: What about the “VAS after von Frey hair 64 mN” value (healthy male volunteers [4]; 30 min after medication) of the same compound?
A: 2.8 (1.8)

Q: And the “VAS after von Frey hair 128 mN” value (healthy male volunteers [4]; 30 min after medication)?
A: 3.2 (4.2)

Q: What about the “VAS after von Frey hair 256 mN” value (healthy male volunteers [4]; 30 min after medication) of the same compound?
A: 4.2 (2.2)

Q: And the “VAS after von Frey hair 512 mN” value (healthy male volunteers [4]; 30 min after medication)?
A: 5.2 (2.1)

Q: And the “VAS after von Frey hair 8 mN” value (healthy male volunteers [4]; 60 min after medication)?
A: 1.2 (0.9)

Q: What about the “VAS after von Frey hair 16 mN” value (healthy male volunteers [4]; 60 min after medication) of the same compound?
A: 1.8 (1.9)

Q: What about the “VAS after von Frey hair 32 mN” value (healthy male volunteers [4]; 60 min after medication) of the same compound?
A: 2.0 (2.0)

Q: And the “VAS after von Frey hair 64 mN” value (healthy male volunteers [4]; 60 min after medication)?
A: 2.7 (2.0)

Q: And the “VAS after von Frey hair 128 mN” value (healthy male volunteers [4]; 60 min after medication)?
A: 3.5 (2.0)

Q: What about the “VAS after von Frey hair 256 mN” value (healthy male volunteers [4]; 60 min after medication) of the same compound?
A: 4.1 (1.8)

Q: And the “VAS after von Frey hair 512 mN” value (healthy male volunteers [4]; 60 min after medication)?
A: 5.1 (2.0)

Q: What about the “VAS after von Frey hair 8 mN” value (healthy male volunteers [4]; 90 min after medication) of the same compound?
A: 0.8 (0.8)

Q: What about the “VAS after von Frey hair 16 mN” value (healthy male volunteers [4]; 90 min after medication) of the same compound?
A: 1.3 (1.0)

Q: What about the “VAS after von Frey hair 32 mN” value (healthy male volunteers [4]; 90 min after medication) of the same compound?
A: 1.8 (1.4)

Q: And the “VAS after von Frey hair 64 mN” value (healthy male volunteers [4]; 90 min after medication)?
A: 2.1 (1.6)

Q: What about the “VAS after von Frey hair 128 mN” value (healthy male volunteers [4]; 90 min after medication) of the same compound?
A: 2.8 (1.7)

Q: And the “VAS after von Frey hair 256 mN” value (healthy male volunteers [4]; 90 min after medication)?
A: 4.4 (2.0)

Q: And the “VAS after von Frey hair 512 mN” value (healthy male volunteers [4]; 90 min after medication)?
A: 5.3 (2.1)

Q: And the “VAS after von Frey hair 8 mN” value (healthy male volunteers [4]; 120 min after medication)?
A: 1.0 (0.8)

Q: And the “VAS after von Frey hair 16 mN” value (healthy male volunteers [4]; 120 min after medication)?
A: 1.4 (1.2)

Q: And the “VAS after von Frey hair 32 mN” value (healthy male volunteers [4]; 120 min after medication)?
A: 2.1 (1.7)

Q: What about the “VAS after von Frey hair 64 mN” value (healthy male volunteers [4]; 120 min after medication) of the same compound?
A: 2.3 (1.5)

Q: And the “VAS after von Frey hair 128 mN” value (healthy male volunteers [4]; 120 min after medication)?
A: 2.9 (1.9)

Q: What about the “VAS after von Frey hair 256 mN” value (healthy male volunteers [4]; 120 min after medication) of the same compound?
A: 3.9 (2.2)

Q: And the “VAS after von Frey hair 512 mN” value (healthy male volunteers [4]; 120 min after medication)?
A: 5.0 (1.9)

Q: What about the “VAS after von Frey hair 8 mN” value (healthy male volunteers [4]; after flumazenil 0.2 mg iv) of the same compound?
A: 0.6 (0.6)

Q: What about the “VAS after von Frey hair 16 mN” value (healthy male volunteers [4]; after flumazenil 0.2 mg iv) of the same compound?
A: 1.4 (1.2)

Q: What about the “VAS after von Frey hair 32 mN” value (healthy male volunteers [4]; after flumazenil 0.2 mg iv) of the same compound?
A: 1.6 (1.4)

Q: And the “VAS after von Frey hair 64 mN” value (healthy male volunteers [4]; after flumazenil 0.2 mg iv)?
A: 2.2 (1.7)

Q: What about the “VAS after von Frey hair 128 mN” value (healthy male volunteers [4]; after flumazenil 0.2 mg iv) of the same compound?
A: 2.6 (1.9)

Q: What about the “VAS after von Frey hair 256 mN” value (healthy male volunteers [4]; after flumazenil 0.2 mg iv) of the same compound?
A: 3.8 (1.7)

Q: What about the “VAS after von Frey hair 512 mN” value (healthy male volunteers [4]; after flumazenil 0.2 mg iv) of the same compound?
A: 4.9 (1.7)

Q: What about the “AUC of VAS during cuff algometry” value (healthy male volunteers [5]; [7]) of the same compound?
A: 3420 (689)

Q: And the “Cuff algometry, overview of peak value or subgroup analysis” value (healthy male volunteers [5]; overview table, compared to tolterodine)?
A: Time factor significant, favouring clobazam and clonazepam compared to tolterodine

Q: And the “AUC of VAS during cuff algometry” value (healthy male volunteers [5]; [11])?
A: 3175 (644)

Q: And the “AUC of VAS during cuff algometry” value (healthy male volunteers [5]; [12])?
A: 3225 (671)

Q: What about the “AUC of VAS during cuff algometry compared with tolterodine at 120 min” value (healthy male volunteers [5]; [13]) of the same compound?
A: significantly lower

Q: What about the “Change of AUC of VAS during cuff algometry from baseline at 120 min and after flumazenil” value (healthy male volunteers [5]; [13]) of the same compound?
A: significantly decreased

Q: And the “Maximal VAS during 20 intramuscular electrical stimuli” value (healthy male volunteers [6]; [7])?
A: 4.3 (1.4)

Q: And the “Maximal VAS during 20 intramuscular electrical stimuli” value (healthy male volunteers [6]; [11])?
A: 3.2 (2.4)

Q: And the “Maximal VAS during 20 intramuscular electrical stimuli” value (healthy male volunteers [6]; [12])?
A: 2.8 (2.0)

Q: What about the “AUC of VAS during 20 intramuscular electrical stimuli” value (healthy male volunteers [6]; [7]) of the same compound?
A: 307 (138)

Q: And the “AUC of VAS during 20 intramuscular electrical stimuli” value (healthy male volunteers [6]; [11])?
A: 236 (204)

Q: What about the “AUC of VAS during 20 intramuscular electrical stimuli” value (healthy male volunteers [6]; [12]) of the same compound?
A: 209 (178)

Q: And the “Maximal VAS during 20 intramuscular electrical stimuli, comparison among drugs” value (healthy male volunteers [6]; subgroup analysis (n = 8), pairwise comparisons vs tolterodine and clobazam)?
A: lower values; also recorded: Significantly lower maximal VAS with clonazepam, compared with tolterodine and clobazam in the subgroup analysis
